Biological target: SARS2 coronavirus 3CL protease (Severe acute respiratory syndrome coronavirus 2, UniProt P0DTD1)
Assay: SARS2 Coronavirus 3CL Protease Assay (FRET)
Format: biochemical
Conditions: 5 nM protease pre-incubated with compound 30 minutes; 15 uM peptide substrate; 4 h room temperature; read-out: FRET Potency (nM); IC50 values in the SARS2 3CLPro FRET assay
Protocol: The enzymatic activity of SARS2 coronavirus 3CL protease was determined in a FRET (fluorescence resonance energy transfer)-based assay measuring the cleavage of a peptide substrate by recombinantly expressed and purified enzyme. Cleavage of the peptide SEQ ID NO: 1 (CPC Scientific) by SARS2 3CL protease was measured in reaction buffer (50 mM Hepes pH 7.5, 0.01% Triton X-100, 0.01% BSA, 2 mM DTT). […] Room temperature reactions (4 h) were quenched by addition of a high dose of inhibitor and read on an appropriate plate reader (excitation wavelength=495 nm, emission wavelength=520 nm). Data were analyzed by a standard 4 parameter fit to determine IC50 values.

CNC(=O)C(=O)[C@H](CCC(C)(F)F)NC(=O)c1cc(Cl)ccc1NC(=O)[C@H]1CC1(F)F [Example 23, 5-chloro-2-[[(1R)-2,2-difluorocyclopropanecarbonyl]amino]-N-[(1S)-4,4-difluoro-1-[2-(methylamino)-2-oxo-acetyl]pentyl]benzamide]
IC50: 13.2 nM

CNC(=O)C(=O)[C@H](CCC(C)(F)F)NC(=O)c1cc(Cl)ccc1NC(=O)C1CN(C)C1 [Example 50, N-[4-chloro-2-[[(1S)-4,4-difluoro-1-[2-(methylamino)-2-oxo-acetyl]pentyl]carbamoyl]phenyl]-1-methyl-azetidine-3-carboxamide]
IC50: 21.8 nM

CNC(=O)C(=O)[C@H](CCC(C)(F)F)NC(=O)c1cc(Cl)cnc1NC(=O)C1CC(F)(F)C1 [Example 54, 5-chloro-2-[(3,3-difluorocyclobutanecarbonyl)amino]-N-[(1S)-4,4-difluoro-1-[2-(methylamino)-2-oxo-acetyl]pentyl]pyridine-3-carboxamide]
IC50: 7.5 nM

CC(F)(F)CC[C@H](NC(=O)c1cc(Cl)ccc1NC(=O)c1ccnc(C(F)(F)F)c1)C(=O)C(N)=O [Example 7, (S)—N-(2-((1-amino-6,6-difluoro-1_2-dioxoheptan-3-yl)carbamoyl)-4-chlorophenyl)-2-(trifluoromethyl)isonicotinamide]
IC50: 18 nM

CNC(=O)C(=O)[C@H](CCC(C)(F)F)NC(=O)c1cc(Cl)c(F)cc1NC(=O)CCC(F)(F)F [Example 4, (S)-5-chloro-N-(6,6-difluoro-1-(methylamino)-1,2-dioxoheptan-3-yl)-4-fluoro-2-(4,4,4-trifluorobutanamido)benzamide]
IC50: 9.9 nM

CNC(=O)C(=O)[C@H](CCC(C)(F)F)NC(=O)c1cc(Cl)ncc1NC(=O)OC [Example 55, methyl N-[6-chloro-4-[[(1S)-4,4-difluoro-1-[2-(methylamino)-2-oxo-acetyl]pentyl]carbamoyl]-3-pyridyl]carbamate]
IC50: 93.8 nM

CNC(=O)C(=O)[C@H](CCC(C)(F)F)NC(=O)c1cc(Cl)cnc1NC(=O)c1cccc(C(F)(F)F)c1 [Example 21, 5-chloro-N-[(1S)-4,4-difluoro-1-[2-(methylamino)-2-oxo-acetyl]pentyl]-2-[[3-(trifluoromethyl)benzoyl]amino]pyridine-3-carboxamide]
IC50: 11.7 nM

CNC(=O)C(=O)[C@H](CCC(C)(F)F)NC(=O)c1cc(F)cnc1NC(=O)c1cccc(F)c1 [Example 34, N-[(1S)-4,4-difluoro-1-[2-(methylamino)-2-oxo-acetyl]pentyl]-5-fluoro-2-[(3-fluorobenzoyl)amino]pyridine-3-carboxamide]
IC50: 23.8 nM

CNC(=O)C(=O)[C@H](CCC(C)(F)F)NC(=O)c1cc(F)cnc1NC(=O)C1CC(F)(F)C1 [Example 28, 2-[(3,3-difluorocyclobutanecarbonyl)amino]-N-[(1S)-4,4-difluoro-1-[2-(methylamino)-2-oxo-acetyl]pentyl]-5-fluoro-pyridine-3-carboxamide]
IC50: 19.8 nM

CNC(=O)C(=O)[C@H](CCC(C)(F)F)NC(=O)c1cc(Cl)ccc1NC(=O)N(C)CC1CCC(F)(F)CC1 [Example 57, (S)-5-chloro-N-(6,6-difluoro-1-(methylamino)-1,2-dioxoheptan-3-yl)-2-(3-((4,4-difluorocyclohexyl)methyl)-3-methylureido)benzamide]
IC50: 6 nM

CNC(=O)C(=O)[C@H](CCC(C)(F)F)NC(=O)c1cc(Cl)ccc1NC(=O)C1CC1C(F)(F)F (stereo partly drawn) [Example 32, 5-chloro-N-[(1S)-4,4-difluoro-1-[2-(methylamino)-2-oxo-acetyl]pentyl]-2-[[2-(trifluoromethyl)cyclopropane-carbonyl]amino]benzamide]
IC50: 21.3 nM

Cc1cnc(NC(=O)c2cccc(C(F)(F)F)c2)c(C(=O)N[C@@H](CCC(C)(F)F)C(=O)C(=O)NC2CC2)c1 [Example 45, N-[(1S)-1-[2-(cyclopropylamino)-2-oxo-acetyl]-4,4-difluoro-pentyl]-5-methyl-2-[[3-(trifluoromethyl)benzoyl]amino]pyridine-3-carboxamide]
IC50: 76.2 nM

CNC(=O)C(=O)[C@H](CCC(C)(F)F)NC(=O)c1cc(Cl)cnc1NC(=O)c1cccc(F)c1 [Example 24, 5-chloro-N-[(1S)-4,4-difluoro-1-[2-(methylamino)-2-oxo-acetyl]pentyl]-2-[(3-fluorobenzoyl)amino]pyridine-3-carboxamide]
IC50: 14 nM

CNC(=O)C(=O)[C@H](CCC(C)(F)F)NC(=O)c1cc(Cl)ccc1NC(=O)C1CC1C(F)(F)F (stereo partly drawn) [Example 30, 5-chloro-N-[(1S)-4,4-difluoro-1-[2-(methylamino)-2-oxo-acctyl]pentyl]-2-[[2-(trifluoromethyl)cyclopropane-carbonyl]amino]benzamide]
IC50: 20.7 nM

CNC(=O)C(=O)[C@H](CCC(C)(F)F)NC(=O)c1cc(Cl)ccc1NC(=O)C1CC1C(F)(F)F (stereo partly drawn) [Example 47, 5-chloro-N-[(1S)-4,4-difluoro-1-[2-(methylamino)-2-oxo-acetyl]pentyl]-2-[[2-(trifluoromethyl)cyclopropane-carbonyl]amino]benzamide]
IC50: 20.5 nM

CNC(=O)C(=O)[C@H](CCC(C)(F)F)NC(=O)c1cc(C#N)ccc1NC(=O)C12CC(C(F)(F)F)(C1)C2 [Example 37, N-[4-cyano-2-[[(1S)-4,4-difluoro-1-[2-(methylamino)-2-oxo-acetyl]pentyl]carbamoyl]phenyl]-3-(trifluoromethyl)bicyclo[1.1.1] pentane-1-carboxamide]
IC50: 31.1 nM

CNC(=O)C(=O)[C@H](CCC(C)(F)F)NC(=O)c1cc(Cl)ccc1NC(=O)c1cccnc1 [Example 52]
IC50: 15.6 nM

CNC(=O)C(=O)[C@H](CCC(C)(F)F)NC(=O)c1cc(Cl)ccc1NC(=O)c1ccnc(C(F)(F)F)c1 [Example 1, (S)—N-(4-chloro-2-((6,6-difluoro-1-(methylamino)-1,2-dioxoheptan-3-yl)carbamoyl)phenyl)-2-(trifluoromethyl)isonicotinamide]
IC50: 8.1 nM

CNC(=O)C(=O)[C@H](CCC(C)(F)F)NC(=O)c1cc(Cl)ccc1NC(=O)C1CCOCC1 [Example 16, N-[4-chloro-2-[[(1S)-4,4-difluoro-1-[2-(methylamino)-2-oxo-acetyl]pentyl]carbamoyl]phenyl] tetrahydropyran-4-carboxamide]
IC50: 8.5 nM

CNC(=O)C(=O)[C@H](CCC(C)(F)F)NC(=O)c1cc(Cl)cnc1NC(=O)C1(C(F)(F)F)CC1 [Example 36, 5-chloro-N-[(1S)-4,4-difluoro-1-[2-(methylamino)-2-oxo-acetyl]pentyl]-2-[[1-(trifluoromethyl)cyclopropane-carbonyl]amino]pyridine-3-carboxamide]
IC50: 24.4 nM

CNC(=O)C(=O)[C@H](CCC(C)(F)F)NC(=O)c1cc(Cl)ccc1NC(=O)[C@H](C)OC [Example 60, 5-chloro-N-[(1S)-4,4-difluoro-1-[2-(methylamino)-2-oxo-acetyl]pentyl]-2-[[(2S)-2-methoxypropanoyl]amino] benzamide]
IC50: 9.4 nM

CC(F)(F)CC[C@H](NC(=O)c1cc(Cl)cnc1NC(=O)C1(C(F)(F)F)CC1)C(=O)C(=O)NC1CC1 [Example 44, 5-chloro-N-[(1S)-1-[2-(cyclopropylamino)-2-oxo-acetyl]-4,4-difluoro-pentyl]-2-[[1-(trifluoromethyl)cyclopropane-carbonyl]amino]pyridine-3-carboxamide]
IC50: 50.4 nM
